Test results reported in patent US11964953B2, “Substituted aminothiazoles as DGKzeta inhibitors for immune activation” (Bayer Aktiengesellschaft, priority 2020, dated 2024).

What follows are compounds tested against human DGKζ (Homo sapiens (Human), UniProt Q13574) (assay: Human DGKζ kinase activity inhibition assay (ADP-Glo)). Settings: in vitro human DGKζ kinase activity inhibition assay; read-out: IC50.
human DGKζ, sequence (Q13574 other isoform, or with tags, fused parts or gaps): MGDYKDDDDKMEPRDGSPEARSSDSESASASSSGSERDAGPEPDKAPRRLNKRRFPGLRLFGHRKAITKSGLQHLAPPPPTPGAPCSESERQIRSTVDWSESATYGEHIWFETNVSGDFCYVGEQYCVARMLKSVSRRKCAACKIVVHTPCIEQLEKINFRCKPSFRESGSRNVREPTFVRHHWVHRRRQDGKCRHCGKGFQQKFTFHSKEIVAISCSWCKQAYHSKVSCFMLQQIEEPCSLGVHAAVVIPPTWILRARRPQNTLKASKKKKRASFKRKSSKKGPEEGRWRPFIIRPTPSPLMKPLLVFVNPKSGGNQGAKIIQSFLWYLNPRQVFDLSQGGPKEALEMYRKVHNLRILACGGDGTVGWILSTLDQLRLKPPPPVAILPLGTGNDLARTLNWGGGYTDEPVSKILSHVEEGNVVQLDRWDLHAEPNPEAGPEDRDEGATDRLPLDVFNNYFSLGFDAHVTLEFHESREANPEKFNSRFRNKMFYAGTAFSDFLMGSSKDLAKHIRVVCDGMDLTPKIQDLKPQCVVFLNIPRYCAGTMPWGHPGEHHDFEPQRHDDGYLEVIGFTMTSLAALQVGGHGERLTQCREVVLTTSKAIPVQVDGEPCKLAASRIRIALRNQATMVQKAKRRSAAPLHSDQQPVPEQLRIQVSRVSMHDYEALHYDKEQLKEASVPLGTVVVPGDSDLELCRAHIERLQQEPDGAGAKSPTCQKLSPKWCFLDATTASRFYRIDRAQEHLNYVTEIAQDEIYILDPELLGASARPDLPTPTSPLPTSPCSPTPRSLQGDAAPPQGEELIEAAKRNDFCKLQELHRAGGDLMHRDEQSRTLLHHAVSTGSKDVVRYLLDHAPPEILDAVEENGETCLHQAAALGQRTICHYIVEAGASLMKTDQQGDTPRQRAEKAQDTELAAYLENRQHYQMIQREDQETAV
Type: biochemical
Procedure: Human DGKζ Kinase Activity Inhibition Assay. Human diacylglycerol kinase zeta (DGKζ) inhibitory activity of compounds of the present invention was quantified employing the human DGKζ kinase activity assay as described in the following paragraphs. In essence, the enzyme activity was measured by quantification of the adenosine-di-phosphate (ADP) generated as a co-product of the enzyme reaction via the “ADP-Glo™ Kinase Assay” kit from the company Promega. This detection system works as follows: In a first step the adenosine-tri-phosphate (ATP) not consumed in the kinase reaction is quantitatively converted to cyclic adenosine-mono-phosphate (cAMP) employing an adenylate cyclase (“ADP-Glo-reagent”), then the adenylate cyclase is stopped and the ADP generated in the kinase reaction is converted to ATP, which subsequently generates in a luciferase-based reaction a glow-luminescence signal (“Kinase Detection Reagent”). C-terminally FLAG-tagged, recombinant full-length human DGKζ (in house expressed in baculovirus infected insect cells, purified using anti-Flag pulldown and size exclusion chromatography) was used as enzyme. As an alternative, commercially available enzyme by Carnabio can be used. […] Subsequently, 22.55 volumes of a 510 mM solution of octyl-β-D-glucopyranoside (Sigma-Aldrich, Cat. #O8001-10G) in 50 mM MOPS buffer (pH 7.4) were added, and the mixture was sonicated in an ultrasonic bath for 20 s. […] Viewlux™ from Perkin-Elmer). The amount of emitted light was taken as a measure for the amount of ADP generated and thereby for the activity of the DGKζ.
With `CC(C(N)=O)N(c1ccc(F)cc1)c1nc(N)c(C(=O)c2ccc(N3CCC(C(F)(F)F)CC3)nc2)s1` (racemic) [Example 275, rac-2-(N-[4-amino-5-[6-[4-(trifluoromethyl)-1-piperidyl]pyridine-3-carbonyl]thiazol-2-yl]-4-fluoro-anilino)propanamide] the IC50 was 29 nM. Work on `CC(C(N)=O)N(c1ccc(Cl)cc1)c1nc(N)c(C(=O)c2ccc(OC(F)F)cc2)s1` (single isomer, unassigned) [Example 47.1, 2-(N-[4-amino-5-[4-(difluoromethoxy)benzoyl]thiazol-2-yl]-4-chloro-anilino)propanamide] yielded an IC50 of 1020 nM. Compound `CC(C(N)=O)N(c1ccc(Cl)c(F)c1)c1nc(N)c(C(=O)c2ccc(OC(F)F)cc2)s1` (racemic) [Example 48, rac-2-(N-[4-amino-5-[4-(difluoromethoxy)benzoyl]thiazol-2-yl]-4-chloro-3-fluoro-anilino)propanamide] has an IC50 of 3.72 nM. In the case of `Cc1ccc(C(=O)c2sc(N(c3ccc(F)cc3)C(C)C(N)=O)nc2N)cc1` (single isomer, unassigned) [Example 63.2, 2-(N-[4-amino-5-(4-methylbenzoyl)thiazol-2-yl]-4-fluoro-anilino)propanamide], the IC50 is reported as 18.5 nM. For `CC(C(N)=O)N(c1ccc(OC(F)F)c(Cl)c1)c1nc(N)c(C(=O)c2ccccc2)s1` (racemic) [Example 194, rac-2-[N-(4-amino-5-benzoyl-thiazol-2-yl)-3-chloro-4-(difluoromethoxy)anilino]propanamide], the IC50 was 66 nM. With `Cc1ccc(C(=O)c2sc(N(c3ccc(F)cc3)C(C)C(N)=O)nc2N)cn1` (racemic) [Example 6, rac-2-(N-[4-amino-5-(6-methylpyridine-3-carbonyl)thiazol-2-yl]-4-fluoro-anilino)propanamide] the IC50 was 740 nM. Work on `CC(C(N)=O)N(c1ccc(F)cc1)c1nc(N)c(C(=O)c2ccc(N3CCOCC3)cc2)s1` (racemic) [Example 178, rac-2-(N-[4-amino-5-(4-morpholinobenzoyl)thiazol-2-yl]-4-fluoro-anilino)propanamide] yielded an IC50 of 48 nM. Work on `CC(C(N)=O)N(c1ccc(OC(F)F)c(F)c1)c1nc(N)c(C(=O)c2ccccc2)s1` (racemic) [Example 198, rac-2-[N-(4-amino-5-benzoyl-thiazol-2-yl)-4-(difluoromethoxy)-3-fluoro-anilinojpropanamide] yielded an IC50 of 88 nM. Work on `CC(C(N)=O)N(c1ccc(OC(F)(F)F)cc1)c1nc(N)c(C(=O)c2ccc(F)cc2)s1` (single isomer, unassigned) [Example 27.1, 2-[N-[4-amino-5-(4-fluorobenzoyl)thiazol-2-yl]-4-(trifluoromethoxy)anilino]propanamide] yielded an IC50 of 8650 nM. In the case of `CC(C(N)=O)N(c1ccc(F)cc1)c1nc(N)c(C(=O)c2ccc(OCC(=O)N(C)C3CCN(C)CC3)cc2)s1` (racemic) [Example 101, rac-2-(N-[4-amino-5-[4-[2-[methyl-(1-methyl-4-piperidyl)amino]-2-oxo-ethoxy]benzoyl]thiazol-2-yl]-4-fluoro-anilino)propanamide], the IC50 is reported as 329 nM. `CC(C(N)=O)N(c1ccc(Cl)cc1)c1nc(N)c(C(=O)c2ccc(OC(F)F)cc2)s1` (single isomer, unassigned) [Example 47.2, 2-(N-[4-amino-5-[4-(difluoromethoxy)benzoyl]thiazol-2-yl]-4-chloro-anilino)propanamide] gave an IC50 of 1.96 nM. Work on `CC(C(N)=O)N(c1ccc(OC(F)F)c(F)c1)c1nc(N)c(C(=O)c2ccc(Cl)cc2)s1` (racemic) [Example 206, rac-2-[N-[4-amino-5-(4-chlorobenzoyl)thiazol-2-yl]-4-(difluoromethoxy)-3-fluoro-anilino]propanamide] yielded an IC50 of 48 nM. Work on `CC(C(N)=O)N(c1ccc(F)nc1)c1nc(N)c(C(=O)c2ccccc2)s1` (racemic) [Example 233, rac-2-[(4-amino-5-benzoyl-thiazol-2-yl)-(6-fluoro-3-pyridyl)amino]propanamide] yielded an IC50 of 267 nM.
